According to US4340539A, “Derivatives of 6-bromo penicillanic acid” (priority 1980, dated 1982):
Like-named read-outs stand apart in the source and are kept apart here.

Tests used:
[1] = system: S. pneumoniae; experiment: Antibacterial activity (MIC); format: cell-based; settings: Streptococcus pneumoniae; strain A-9585
[2] = system: S. pyogenes; experiment: Antibacterial activity (MIC); format: cell-based; settings: Streptococcus pyogenes; strain A-9604
[3] = system: S. aureus; experiment: Antibacterial activity (MIC); format: cell-based; settings: Staphylococcus aureus
[4] = system: S. faecalis; experiment: Antibacterial activity (MIC); format: cell-based; settings: Enterococcus faecalis; strain A20688
[5] = system: E. coli; experiment: Antibacterial activity (MIC); format: cell-based; settings: Escherichia coli
[6] = system: K. pneumoniae; experiment: Antibacterial activity (MIC); format: cell-based
[7] = system: P. mirabilis; experiment: Antibacterial activity (MIC); format: cell-based; settings: Proteus mirabilis; strain A-9900
[8] = system: P. vulgaris; experiment: Antibacterial activity (MIC); format: cell-based; settings: Proteus vulgaris; strain A21559
[9] = system: P. morganii; experiment: Antibacterial activity (MIC); format: cell-based; settings: Morganella morganii; strain A15153
[10] = system: P. rettgeri; experiment: Antibacterial activity (MIC); format: cell-based; settings: Providencia rettgeri; strain A21203
[11] = system: S. marcescens; experiment: Antibacterial activity (MIC); format: cell-based; settings: Serratia marcescens; strain A20019
[12] = system: E. cloacae; experiment: Antibacterial activity (MIC); format: cell-based; settings: Enterobacter cloacae
[13] = system: P. aeruginosa; experiment: Antibacterial activity (MIC); format: cell-based
[14] = system: B. fragilis; experiment: Anti-Bacteroides activity (MIC, agar dilution), alone and in combination with BL-P2013; format: cell-based
[15] = system: B. thetaiotaomicron; experiment: as above; format: cell-based
Procedure: *Minimum inhibitory concentration (MIC) determined by the agar dilution
method using 50X dilutions of 24 hour cultures as inocula dispensed by th
Steer's inoculator. Assay medium composed of Brucella Agar plus 5% laked
sheep blood and 10 mcg/ml vitamin K.

[16] = system: Bacteroides species; experiment: as above; format: cell-based
[17] = system: S. aureus A-9606; experiment: Therapeutic efficacy in mice experimentally infected with a beta-lactamase strain of Staphylococcus aureus (Table 3); format: in vivo; settings: for ED50: Staphylococcus aureus, A9606, challenge 5 × 10^8, read-out: PD50/Treatment
Procedure: Treatment schedule: Drugs administered 0 and 2 hours postinfection.

[18] = Blood levels after oral administration to mice (Table 4); format: in vivo; settings: mouse; for concentration at 0.5 h: 30 min; for concentration at 1 h: 60 min; for concentration at 2 h: 120 min
[19] = system: β-lactamase producing strains of E. coli; experiment: animal or person; format: in vivo, mice; settings: Escherichia coli, in Mus musculus, po
Procedure: (§1) Drugs were administered orally at 0 and 2 hours postinfection.
(§2) Drugs were suspended in TCMC.

[20] = system: β-lactamase producing strains of S. aureus; experiment: animal or person; format: in vivo, mice; settings: Staphylococcus aureus, in Mus musculus, po
Procedure: as §1, §2

[21] = system: β-lactamases; experiment: Inhibition of β-lactamases; format: biochemical
[22] = system: bacteria; experiment: Antibacterial activity (statement); format: cell-based
[23] = system: β-lactamase-producing bacteria; experiment: Protection of ceforanide and amoxicillin from destruction by β-lactamase-producing bacteria; settings: in vitro and in vivo, in combination
[24] = 100 mg/kg, oral 100 mg/kg, assay organism E. coli A-9675, read-out: Blood level
[25] = 100 mg/kg, oral 100 mg/kg, assay organism S. aureus A-9606, read-out: Blood level
[26] = 200 mg/kg, oral 200 mg/kg, assay organism S. aureus A-9606, read-out: Blood level

CC1(CCl)C(C(=O)O)N2C(=O)CC2S1(=O)=O (stereo not drawn) [BL-P2013, Potassium 2β-Chloromethyl-2α-methylpenam-3α-carboxylate Sulfone]
MIC [1]: 16 µg/mL
MIC [2]: 63 µg/mL
MIC ([3]; strain A15097, Meth-Res): > 125 µg/mL
MIC ([3]; strain A-9537): > 125 µg/mL
MIC ([3]; strain A-9537, + 50% serum): > 125 µg/mL
MIC ([3]; strain A-9606, Pen-Res): > 125 µg/mL
MIC [4]: > 125 µg/mL
MIC ([5]; strain A15119): > 125 µg/mL
MIC ([5]; strain A20341-1): > 125 µg/mL
MIC ([6]; Klebsiella pneumoniae, strain A15130, read-out: MIC): > 125 µg/mL
MIC ([6]; strain A20468): > 125 µg/mL
MIC [7]: > 125 µg/mL
MIC [8]: > 125 µg/mL
MIC [9]: > 125 µg/mL
MIC [10]: > 125 µg/mL
MIC [11]: > 125 µg/mL
MIC ([12]; strain A-9656): > 125 µg/mL
MIC ([12]; strain A-9659): > 125 µg/mL
MIC ([13]; Pseudomonas aeruginosa, strain A-9843A, read-out: MIC): > 125 µg/mL
MIC ([13]; strain A21213): > 125 µg/mL
MIC ([14]; strain A21875, β-lactamase +): 63 µg/mL
MIC ([14]; strain A21916, β-lactamase +, read-out: MIC): > 125 µg/mL
MIC ([14]; strain A22021, β-lactamase +, read-out: MIC): 32 µg/mL
MIC ([14]; strain A22053, β-lactamase +): 63 µg/mL
MIC ([14]; strain A22533, β-lactamase +, read-out: MIC): 32 µg/mL
MIC ([14]; strain A22534, β-lactamase +, read-out: MIC): 125 µg/mL
MIC ([14]; strain A22535, β-lactamase +, read-out: MIC): 125 µg/mL
MIC ([14]; strain A22693, β-lactamase +): 63 µg/mL
MIC ([14]; strain A22694, β-lactamase +): 63 µg/mL
MIC ([14]; strain A22695, β-lactamase +, read-out: MIC): 32 µg/mL
MIC ([14]; strain A22696, β-lactamase +): 63 µg/mL
MIC ([14]; strain A22697, β-lactamase +): 63 µg/mL
MIC ([14]; strain A22792, β-lactamase +, read-out: MIC): 32 µg/mL
MIC ([14]; strain A22793, β-lactamase +, read-out: MIC): 32 µg/mL
MIC ([14]; strain A22794, β-lactamase +, read-out: MIC): 32 µg/mL
MIC ([14]; strain A22795, β-lactamase +, read-out: MIC): 32 µg/mL
MIC ([14]; strain A22797, β-lactamase +): 63 µg/mL
MIC ([14]; strain A22798, β-lactamase +): 63 µg/mL
MIC ([15]; Bacteroides thetaiotaomicron, strain A22277, β-lactamase +, read-out: MIC): 63 µg/mL
MIC ([15]; strain A22279, β-lactamase +): 63 µg/mL
MIC ([16]; Bacteroides): 63 µg/mL
MIC ([16]; Bacteroides, strain A20929, β-lactamase +, read-out: MIC): 32 µg/mL
MIC ([16]; Bacteroides, strain A20930, β-lactamase +, read-out: MIC): 125 µg/mL
MIC ([16]; Bacteroides, strain A20931, β-lactamase +, read-out: MIC): 32 µg/mL
MIC ([16]; Bacteroides, strain A20934, β-lactamase +, read-out: MIC): 32 µg/mL
MIC ([16]; Bacteroides, strain A20935, β-lactamase -, read-out: MIC): 125 µg/mL
MIC ([16]; Bacteroides, strain A21959, β-lactamase +, read-out: MIC): 32 µg/mL
MIC ([16]; strain A20927-1, β-lactamase -): 63 µg/mL
MIC ([16]; strain A20933, β-lactamase +): 63 µg/mL
PD50/Treatment ([17]; IM, challenge 7 × 10^8): > 50 mg/kg
ED50 ([17]; IM): > 50 mg/kg
ED50 ([17]; PO): > 200 mg/kg
concentration at […] ([18]; 100 mg/kg, oral 100 mg/kg, 15 min, assay organism E. coli A-9675, read-out: Blood level): 4500 ng/mL
concentration at […] ([18]; 100 mg/kg, oral 100 mg/kg, 15 min, assay organism S. aureus A-9606, read-out: Blood level): 4600 ng/mL
concentration at 0.5 h [18, 24]: 5100 ng/mL
concentration at 0.5 h [18, 25]: 4100 ng/mL
concentration at 1 h [18, 25]: 3000 ng/mL
concentration at […] ([18]; 100 mg/kg, oral 100 mg/kg, 90 min, assay organism E. coli A-9675, read-out: Blood level): 2300 ng/mL
concentration at […] ([18]; 100 mg/kg, oral 100 mg/kg, 90 min, assay organism S. aureus A-9606, read-out: Blood level): < 2600 ng/mL
concentration at 2 h [18, 24]: 1500 ng/mL
concentration at 2 h [18, 25]: < 2600 ng/mL
concentration at […] ([18]; 100 mg/kg, oral 100 mg/kg, 150 min, assay organism S. aureus A-9606, read-out: Blood level): < 2600 ng/mL
half-life ([18]; 100 mg/kg, oral 100 mg/kg, assay organism E. coli A-9675): 50 min
concentration at […] ([18]; 200 mg/kg, oral 200 mg/kg, 15 min, assay organism S. aureus A-9606, read-out: Blood level): 7400 ng/mL
concentration at 0.5 h [18, 26]: 9800 ng/mL
concentration at 1 h [18, 26]: 7100 ng/mL
concentration at […] ([18]; 200 mg/kg, oral 200 mg/kg, 90 min, assay organism S. aureus A-9606, read-out: Blood level): 4100 ng/mL
concentration at 2 h [18, 26]: 2800 ng/mL
concentration at […] ([18]; 200 mg/kg, oral 200 mg/kg, 150 min, assay organism S. aureus A-9606, read-out: Blood level): < 2600 ng/mL
half-life ([18]; 200 mg/kg, oral 200 mg/kg, assay organism S. aureus A-9606): 50 min
ED50 ([19]; read-out: PD50/Treatment, oral, E. coli A9675, challenge 6 × 10^5): > 200 mg/kg
ED50 ([19]; read-out: PD50/Treatment, oral, E. coli A9675, challenge 7 × 10^5): > 100 mg/kg
ED50 ([19]; read-out: PD50/Treatment, oral, E. coli A9675, challenge 8 × 10^5): > 200 mg/kg
ED50 ([19]; read-out: PD50/Treatment, oral, E. coli A20649, challenge 5 × 10^5): > 200 mg/kg
ED50 ([19]; read-out: PD50/Treatment, oral, E. coli A20649, challenge 6 × 10^5): > 200 mg/kg
ED50 ([19]; read-out: PD50/Treatment, oral, E. coli A21223, challenge 6 × 10^5): > 200 mg/kg
ED50 ([19]; read-out: PD50/Treatment, oral, E. coli A21223, challenge 7 × 10^5 (first line)): > 200 mg/kg
ED50 ([19]; read-out: PD50/Treatment, oral, E. coli A21223, challenge 7 × 10^5 (third line)): > 200 mg/kg
ED50 ([20]; read-out: PD50/Treatment, oral, S. aureus A9606, challenge 2 × 10^9): > 200 mg/kg
ED50 ([20]; read-out: PD50/Treatment, oral, S. aureus A9606, challenge 7 × 10^8): > 200 mg/kg
ED50 ([20]; read-out: PD50/Treatment, oral, S. aureus A15091, challenge 4 × 10^8): > 200 mg/kg
ED50 ([20]; read-out: PD50/Treatment, oral, S. aureus A15091, challenge 5 × 10^8): > 200 mg/kg
ED50 ([20]; read-out: PD50/Treatment, oral, S. aureus A20379, challenge 5 × 10^8): > 200 mg/kg
ED50 ([20]; read-out: PD50/Treatment, oral, S. aureus A20379, challenge 6 × 10^8): 174 mg/kg
β-lactamase inhibition [21]: inhibits β-lactamases
antibacterial activity [22]: at best a very weak antibacterial agent
protection of ceforanide and amoxicillin from destruction [23]: protected ceforanide and amoxicillin from destruction by β-lactamase-producing bacteria in vitro and in vivo
